Where two headings read alike, the source gives them in different places.
Columns and labels:
[1] = test system: Normal Human Dermal Fibroblast (NHDF); experiment: Sulforhodamine B cytotoxicity assay, NHDF; format: cell-based; settings: for toxicity to NHDF cells compared: compared with well known anticancer drugs
Excerpt: (§1) In addition to the DNA cleavage screening already discussed, several of the before-described compounds were screened against a panel of twelve cancerous cell lines as target cells and four "normal" cell preparations. This screening utilized a sulforhodamine B cytotoxicity assay as discussed below.
(§2) SULFORHODAMINE B CYTOTOXICITY ASSAY
(§3) 1. Preparation of target cells in 96-well plates
(§4) 2. Preparation of sample drugs and toxic control
(§5) 3. Addition of Sample Drugs, Compounds and Controls to 96-well Plates
(§6) f. Incubate (37° C., 5-10 percent CO2 in humidified incubator) plates for a total of 72 hours. Check plates at 24 hour intervals microscopically for signs of cytotoxicity.
(§7) IC50 values; i.e., the concentration of Compound required to kill one-half of the treated cells, where then calculated.
(§8) The cell lines assayed are listed below along with their respective sources:
(§9) Separate control studies were also carried out using the following well known anticancer drugs with the following IC50 values for NHDF and cancer cells.

φX174 form I DNA = experiment: Cleavage of cell-free supercoiled DNA, agarose gel electrophoresis; format: biochemical; settings: pH 7.4, 37° C., 15 hours
Procedure: FIG. 1 is a photograph of an ethidium bromide stained 1 percent agarose electrophoresis gel o that illustrates the cleavage of .phi.X174 form I DNA (100 μM base pairs) by Compounds 7, 8, 9, 10 and 12 at 50-5000 μM after 15 hours at 37° C. at a pH value of 7.4 in 50 […]. […] Lanes 2-10 correspond to the following: Lane 2: Compound 12 (100 μM); Lane 3: Compound 10 (100 μM); Lane 4: Compound 7 (100 μM); Lane 5: Compound 8 (100 μM); Lanes 6-10: Compound 9 (50, 100, 500, 1000 and 5000 μM). Forms I, II and III shown to the left of the photograph show the relative migrations of supercoiled (form I) relaxed (form II) and linear (form III) DNA, respectively.
To a vial containing 9 microliters of a cell-free .phi.X174 Type I double-stranded DNA in pH 7.4 […] Tris-HCl buffer was added 1 microliter of a 1.0 millimolar or other appropriate ethanol solution of Compounds 7, 8, 9, 10 and 12.
The vials were then placed in a 37° C. oven for 15 hours. A 2.0 microliter portion of glycerol loading buffer solution containing bromothymol blue indicator was added to each vial. A 10 microliter aliquot was then drawn from each. Gel electrophoresis analysis of the aliquots was performed using a 1.0 percent agarose gel with ethidium bromide run at 115 volts for one hour. DNA cleavage was indicated by the formation of Type II DNA, which was detected by visual inspection of the gel under 310 nanometer ultraviolet light.

Cancer Cells = experiment: cells; format: cell-based, human or mouse
Excerpt: as §1, §2, §3, §4, §5, §6, §7, §8, §9

SK-Mel-28 (Melanoma) = experiment: Sulforhodamine B cytotoxicity assay, SK-Mel-28; format: cell-based; settings: Homo sapiens, 72 hours
Excerpt: as §1, §2, §3, §4, §5, §6, §7
(§10) The cell lines assayed are listed below along with their respective sources: […]

[2] = Cycloaromatization studies using 1,4-cyclohexadiene in toluene; format: physicochemical
Excerpt: These reactions provided Compounds 11-13 as shown schematically in Scheme 2, below. [drawing 9]

HT-29 (Colon Carcinoma) = experiment: Sulforhodamine B cytotoxicity assay, HT-29; format: cell-based; settings: Homo sapiens, 72 hours
Excerpt: as §1, §2, §3, §4, §5, §6, §7, §10

[3] = Stability observed during synthesis; format: physicochemical
Procedure: Finally, PCC oxidation (4.0 equivalents PCC, 4Å molecular sieves in CH2 Cl2 at 25° C. for 0.5 hour) of Compound 8 afforded the tricarbonyl Compound 10 in 49 percent yield as step i.

P-388 (Mouse Leukemia) = experiment: Sulforhodamine B cytotoxicity assay, P-388; format: cell-based; settings: P388, 72 hours
Excerpt: as §1, §2, §3, §4, §5, §6, §7, §10

[4] = test system: HL-60 (Promyeocytic Leukemia); experiment: Sulforhodamine B cytotoxicity assay, HL-60; format: cell-based; settings: Homo sapiens, 72 hours
Excerpt: as §1, §2, §3, §4, §5, §6, §7, §10

[5] = test system: Normal Human Epidermal Keratinocytes (NHEK); experiment: Sulforhodamine B cytotoxicity assay, NHEK; format: cell-based; settings: 72 hours
Excerpt: as §1, §2, §3, §4, §5, §6, §7, §10

MCF-7 (Breast Carcinoma) = experiment: Sulforhodamine B cytotoxicity assay, MCF-7; format: cell-based; settings: Homo sapiens, MCF7, 72 hours
Excerpt: as §1, §2, §3, §4, §5, §6, §7, §10

[6] = test system: UCLA P-3 (Lung Carcinoma); experiment: Sulforhodamine B cytotoxicity assay, UCLA P-3; format: cell-based; settings: Homo sapiens, 72 hours
Excerpt: as §1, §2, §3, §4, §5, §6, §7, §10

H-322 (Lung Carcinoma) = experiment: Sulforhodamine B cytotoxicity assay, H-322; format: cell-based; settings: Homo sapiens, NCI-H322, 72 hours
Excerpt: as §1, §2, §3, §4, §5, §6, §7, §10

[7] = test system: Ovcar-3 (Ovarian Carcinoma); experiment: Sulforhodamine B cytotoxicity assay, Ovcar-3; format: cell-based; settings: Homo sapiens, 72 hours
Excerpt: as §1, §2, §3, §4, §5, §6, §7, §10

Molt-4 (T-Cell Leukemia) = experiment: Sulforhodamine B cytotoxicity assay, Molt-4; format: cell-based; settings: Homo sapiens
Excerpt: as §1, §2, §3, §4, §5, §6, §7, §10

[8] = test system: Chinese Hamster Ovary (CHO); experiment: Sulforhodamine B cytotoxicity assay, CHO; format: cell-based; settings: Cricetulus griseus, normal, 72 hours
Excerpt: as §1, §2, §3, §4, §5, §6, §7, §10

[9] = test system: Capan-1 (Pancreatic Carcinoma); experiment: Sulforhodamine B cytotoxicity assay, Capan-1; format: cell-based; settings: Homo sapiens, 72 hours
Excerpt: as §1, §2, §3, §4, §5, §6, §7, §10

[10] = test system: Human Mammary Epithelial Cells (HMEC); experiment: Sulforhodamine B cytotoxicity assay, HMEC; format: cell-based; settings: normal, 72 hours
Excerpt: as §1, §2, §3, §4, §5, §6, §7, §10

[11] = test system: SIHA (Cervical Carcinoma); experiment: Sulforhodamine B cytotoxicity assay, SIHA; format: cell-based; settings: Homo sapiens, 72 hours
Excerpt: as §1, §2, §3, §4, §5, §6, §7, §10

786-0 (Renal Carcinoma) = experiment: Sulforhodamine B cytotoxicity assay, 786-0; format: cell-based; settings: Homo sapiens, 72 hours
Excerpt: as §1, §2, §3, §4, §5, §6, §7, §10

[12] = control anticancer drugs, read-out: Range of Average IC50 Values, NHDF
[13] = Homo sapiens, control anticancer drugs, read-out: Range of Average IC50 Values, NHDF
[14] = Homo sapiens, normal, 72 hours, read-out: IC50 Values
[15] = 110° C., 1,4-cyclohexadiene in toluene
[16] = MOLT-4, 72 hours, read-out: IC50 Values
[17] = 55° C., 1,4-cyclohexadiene in toluene
[18] = Molt-4 leukemia cells, read-out: IC50

Compound | DNA cleaving activity (φX174 form I DNA) | IC50 (SK-Mel-28 (Melanoma)) [µM] | IC50 [1, 14] [µM] | IC50 (HT-29 (Colon Carcinoma)) [µM] | IC50 [4] [µM] | IC50 [5] [µM] | IC50 (MCF-7 (Breast Carcinoma)) [µM] | IC50 [6] [µM] | IC50 (H-322 (Lung Carcinoma)) [µM] | IC50 [7] [µM] | IC50 (Molt-4 (T-Cell Leukemia); [16]) [µM] | IC50 [8] [µM] | IC50 [9] [µM] | IC50 [10] [µM] | other results
N[C@@H](Cc1ccc(N(CCCl)CCCl)cc1)C(=O)O [Melphelan, reference compound] | – | – | – | – | – | – | – | – | – | – | – | – | – | – | IC50 ([1]; Homo sapiens, read-out: Range of Average IC50 Values, NHDF): 100 µM
Calicheamicin [reference compound] | – | – | – | – | – | – | – | – | – | – | – | – | – | – | IC50 [1, 12]: 0.0025 µM
CC(=O)O[C@H]1C(=O)[C@@]2(C)[C@H]([C@H](OC(=O)c3ccccc3)[C@]3(O)C[C@H](OC(=O)[C@H](O)[C@@H](NC(=O)c4ccccc4)c4ccccc4)C(C)=C1C3(C)C)[C@]1(OC(C)=O)CO[C@@H]1C[C@@H]2O [Taxol, reference compound] | – | – | – | – | – | – | – | – | – | – | – | – | – | – | IC50 [1, 13]: 0.01 µM
CC1=C(C)C(=O)c2cc3c(cc2C1=O)CCCC3O (centres unmarked) [Compound 12] | minor activity | – | – | – | – | – | – | – | – | – | – | – | – | – | –
CN(Cc1cnc2nc(N)nc(N)c2n1)c1ccc(C(=O)N[C@@H](CCC(=O)O)C(=O)O)cc1 [Methotrexate, reference compound] | – | – | – | – | – | – | – | – | – | – | – | – | – | – | IC50 [1, 13]: 50 µM
COC1=C(C(=O)O)[C@H](C)[C@@]23O[C@]24c2cc(O)c5c(c2N[C@H]3C#C/C=C\C#C[C@H]14)C(=O)c1c(O)ccc(O)c1C5=O [Dynemicin A, reference compound] | – | – | – | – | – | – | – | – | – | – | – | – | – | – | IC50 [1, 12]: 0.01 µM
COc1cccc2c1C(=O)c1c(O)c3c(c(O)c1C2=O)C[C@@](O)(C(=O)CO)C[C@@H]3O[C@H]1C[C@H](N)[C@H](O)[C@H](C)O1 [Doxorubicin, reference compound] | – | – | – | – | – | – | – | – | – | – | – | – | – | – | IC50 (Cancer Cells; control anticancer drugs, cancer cells, read-out: Range of Average IC50 Values, Cancer Cells): 0.00016 to 0.098 µM
Cc1c(C)c(O)c2c(c1O)C#CCCCC(O)C#C2 (centres unmarked) [Compound 9] | significant DNA damaging properties | 25 | 25 | 25 | 1.6 | 13 | 25 | 25 | 25 | 25 | 50 | 13 | 13 | 25 | cycloaromatization behaviour [2, 15]: complicated kinetics due to ease of conversion to Compound 8 even under oxygen extrusion conditions, but seems quite stable prior to oxidation; air sensitivity [3]: air-sensitive; stability ([3]; neutral conditions): relatively stable; IC50 (P-388 (Mouse Leukemia)): 3.1 µM
N.N.[Cl][Pt][Cl] [Cis-Platin, reference compound] | – | – | – | – | – | – | – | – | – | – | – | – | – | – | IC50 [1, 12]: 50 µM
Cc1c(C)c(OC(=O)C(C)(C)C)c2c(c1OC(=O)C(C)(C)C)C#CCCCC(O)C#C2 (centres unmarked) [Compound 7] | no DNA cleaving activity | 100 | 100 | 13 | 100 | 25 | 50 | 13 | 100 | 13 | 100 | 100 | 13 | 100 | half life (t1/2) of cycloaromatization [2, 15]: 74 h; stability ([3]; ambient temperature): quite stable; IC50 (P-388 (Mouse Leukemia)): 13 µM
CC1=C(C)C(=O)C2=C(C#CCCCC(O)C#C2)C1=O (centres unmarked) [Compound 8] | significant DNA damaging properties | 6.3 | 3.1 | 6.3 | 7.8 | 3.1 | 6.3 | 6.3 | 13 | 6.3 | 0.1 | 3.2 | 3.1 | 3.1 | toxicity to NHDF cells compared [1]: similarly toxic to the normal NHDF and cancer cells except Molt-4 cells; half life (t1/2) of cycloaromatization [2, 17]: 2.6 h; thermal stability [3]: thermally labile; IC50 (P-388 (Mouse Leukemia)): 2 µM; IC50 (Molt-4 (T-Cell Leukemia); [18]): 0.5 µM
CC1=C(C)C(=O)C2=C(C#CCCCC(=O)C#C2)C1=O [Compound 10] | significant DNA damaging properties | 100 | 100 | 50 | 25 | 100 | 13 | 50 | 100 | 25 | 1.19 | 100 | 100 | 100 | potency in cytotoxicity studies (Cancer Cells; variety of cell lines, in words): most impressive results; toxicity to NHDF cells compared [1]: less toxic than those well known anticancer drugs against the NHDF cells; half life (t1/2) of cycloaromatization [2, 17]: 0.533 h; reactivity in cycloaromatization studies ([2]; series 7-10): most reactive member of the series 7-10; IC50 [11]: 13 µM; IC50 (786-0 (Renal Carcinoma)): 50 µM; IC50 (Molt-4 (T-Cell Leukemia); [18]): 1 µM

From patent US5274141A, “Designed quinone- and hydroquinone-containing cyclic enediyneols and enediyneones having DNA cleaving and cytotoxic properties” (The Scripps Research Institute, priority 1992, dated 1993)
